Results published in patent US20260226493A1, “HERBICIDE RESISTANT PLANTS” (SYNGENTA CROP PROTECTION AG, priority 2023, published 2026).

Key:
Assay in all cases: BIO3-BIO1 mutant enzyme activity in the presence of herbicide, percentage inhibition (fluorometric DAPA assay)
Assay type in all cases: biochemical
Settings in all cases: read-out: percentage inhibition
[1] = biological target: T1, Arabidopsis thaliana BIO3-BIO1 (BioDA) mutants (Arabidopsis thaliana, UniProt B0F481, A609F)
T1 construct: with the predicted N-terminal mitochondrial transit peptide removed; 6xHis-tag (N); thrombin cleavage site (N); made in house; host or cells: E. coli BL21 (DE3) bioA
Method in brief: (§1)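 His-tagged Arabidopsis BIO3-BIO1 mutants, expressed in E. coli and purified by IMAC and SEC, were preincubated at 50 nM with herbicide for 10 min at 20 °C in EPPS pH 8.6 with pyridoxal phosphate. Reaction with 100 μM spermidine and 20 μM KAPA ran 75 min at 20 °C; DAPA was derivatised with o-phthalaldehyde and read at ex 410/em 470 nm. […].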

[2] = biological target: T2, Arabidopsis thaliana BIO3-BIO1 (BioDA) mutants (Arabidopsis thaliana, UniProt B0F481, A609K)
T2 construct: with the predicted N-terminal mitochondrial transit peptide removed; 6xHis-tag (N); thrombin cleavage site (N); made in house; host or cells: E. coli BL21 (DE3) bioA
Method in brief: as §1

[3] = biological target: T3, Arabidopsis thaliana BIO3-BIO1 (BioDA) mutants (Arabidopsis thaliana, UniProt B0F481, A609N)
T3 construct: with the predicted N-terminal mitochondrial transit peptide removed; 6xHis-tag (N); thrombin cleavage site (N); made in house; host or cells: E. coli BL21 (DE3) bioA
Method in brief: as §1

[4] = biological target: T4, Arabidopsis thaliana BIO3-BIO1 (BioDA) mutants (Arabidopsis thaliana, UniProt B0F481, C388M)
T4 construct: with the predicted N-terminal mitochondrial transit peptide removed; 6xHis-tag (N); thrombin cleavage site (N); made in house; host or cells: E. coli BL21 (DE3) bioA
Method in brief: as §1

[5] = biological target: T5, Arabidopsis thaliana BIO3-BIO1 (BioDA) mutants (Arabidopsis thaliana, UniProt B0F481, F348E)
T5 construct: with the predicted N-terminal mitochondrial transit peptide removed; 6xHis-tag (N); thrombin cleavage site (N); made in house; host or cells: E. coli BL21 (DE3) bioA
Method in brief: as §1

[6] = biological target: T6, Arabidopsis thaliana BIO3-BIO1 (BioDA) mutants (Arabidopsis thaliana, UniProt B0F481, F348K)
T6 construct: with the predicted N-terminal mitochondrial transit peptide removed; 6xHis-tag (N); thrombin cleavage site (N); made in house; host or cells: E. coli BL21 (DE3) bioA
Method in brief: as §1

[7] = biological target: T7, Arabidopsis thaliana BIO3-BIO1 (BioDA) mutants (Arabidopsis thaliana, UniProt B0F481, G513P)
T7 construct: with the predicted N-terminal mitochondrial transit peptide removed; 6xHis-tag (N); thrombin cleavage site (N); made in house; host or cells: E. coli BL21 (DE3) bioA
Method in brief: as §1

[8] = biological target: T8, Arabidopsis thaliana BIO3-BIO1 (BioDA) mutants (Arabidopsis thaliana, UniProt B0F481, P421A)
T8 construct: with the predicted N-terminal mitochondrial transit peptide removed; 6xHis-tag (N); thrombin cleavage site (N); made in house; host or cells: E. coli BL21 (DE3) bioA
Method in brief: as §1

[9] = biological target: T9, Arabidopsis thaliana BIO3-BIO1 (BioDA) mutants (Arabidopsis thaliana, UniProt B0F481, P421G)
T9 construct: with the predicted N-terminal mitochondrial transit peptide removed; 6xHis-tag (N); thrombin cleavage site (N); made in house; host or cells: E. coli BL21 (DE3) bioA
Method in brief: as §1

[10] = biological target: T10, Arabidopsis thaliana BIO3-BIO1 (BioDA) mutants (Arabidopsis thaliana, UniProt B0F481, T512V)
T10 construct: with the predicted N-terminal mitochondrial transit peptide removed; 6xHis-tag (N); thrombin cleavage site (N); made in house; host or cells: E. coli BL21 (DE3) bioA
Method in brief: as §1

[11] = biological target: T11, Arabidopsis thaliana BIO3-BIO1 (BioDA) mutants (Arabidopsis thaliana, UniProt B0F481, Y511E)
T11 construct: with the predicted N-terminal mitochondrial transit peptide removed; 6xHis-tag (N); thrombin cleavage site (N); made in house; host or cells: E. coli BL21 (DE3) bioA
Method in brief: as §1

[12] = biological target: T12, Arabidopsis thaliana BIO3-BIO1 (BioDA) mutants (Arabidopsis thaliana, UniProt B0F481, Y511M)
T12 construct: with the predicted N-terminal mitochondrial transit peptide removed; 6xHis-tag (N); thrombin cleavage site (N); made in house; host or cells: E. coli BL21 (DE3) bioA
Method in brief: as §1

T7 sequence (B0F481 23-833 G513P): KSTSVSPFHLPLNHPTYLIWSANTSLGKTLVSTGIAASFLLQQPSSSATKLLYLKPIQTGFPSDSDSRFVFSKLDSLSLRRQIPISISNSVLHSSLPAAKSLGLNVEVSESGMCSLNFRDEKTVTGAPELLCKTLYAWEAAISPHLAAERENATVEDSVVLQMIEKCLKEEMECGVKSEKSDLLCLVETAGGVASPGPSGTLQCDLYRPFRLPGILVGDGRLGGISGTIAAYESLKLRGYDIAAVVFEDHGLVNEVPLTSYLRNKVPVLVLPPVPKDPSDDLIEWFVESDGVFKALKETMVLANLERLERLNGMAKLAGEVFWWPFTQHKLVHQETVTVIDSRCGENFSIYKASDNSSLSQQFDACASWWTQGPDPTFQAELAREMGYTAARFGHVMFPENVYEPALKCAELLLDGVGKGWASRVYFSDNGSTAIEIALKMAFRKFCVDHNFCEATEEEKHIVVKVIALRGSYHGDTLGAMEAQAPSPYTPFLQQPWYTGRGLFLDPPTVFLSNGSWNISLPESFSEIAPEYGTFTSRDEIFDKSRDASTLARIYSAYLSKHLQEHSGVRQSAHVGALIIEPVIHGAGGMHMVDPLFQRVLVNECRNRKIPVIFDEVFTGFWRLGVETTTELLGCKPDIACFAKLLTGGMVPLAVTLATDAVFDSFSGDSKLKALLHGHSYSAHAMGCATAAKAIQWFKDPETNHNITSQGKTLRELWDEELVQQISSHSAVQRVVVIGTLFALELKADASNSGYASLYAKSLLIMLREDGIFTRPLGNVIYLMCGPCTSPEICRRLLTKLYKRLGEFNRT
T8 sequence (B0F481 23-833 P421A): as the sequence (B0F481 23-833 G513P) above, with P399A, P491G counted along it
T5 sequence (B0F481 23-833 F348E): as the sequence (B0F481 23-833 G513P) above, with F326E, P491G counted along it
T6 sequence (B0F481 23-833 F348K): as the sequence (B0F481 23-833 G513P) above, with F326K, P491G counted along it
T1 sequence (B0F481 23-833 A609F): as the sequence (B0F481 23-833 G513P) above, with P491G, A587F counted along it
T9 sequence (B0F481 23-833 P421G): as the sequence (B0F481 23-833 G513P) above, with P399G, P491G counted along it
T11 sequence (B0F481 23-833 Y511E): as the sequence (B0F481 23-833 G513P) above, with Y489E, P491G counted along it
T3 sequence (B0F481 23-833 A609N): as the sequence (B0F481 23-833 G513P) above, with P491G, A587N counted along it
T12 sequence (B0F481 23-833 Y511M): as the sequence (B0F481 23-833 G513P) above, with Y489M, P491G counted along it
T10 sequence (B0F481 23-833 T512V): as the sequence (B0F481 23-833 G513P) above, with T490V, P491G counted along it
T2 sequence (B0F481 23-833 A609K): as the sequence (B0F481 23-833 G513P) above, with P491G, A587K counted along it
T4 sequence (B0F481 23-833 C388M): as the sequence (B0F481 23-833 G513P) above, with C366M, P491G counted along it

Compound: CCn1c(Cn2ccc(C(F)(F)F)n2)cc(=O)c(C(=O)O)c1-c1ccc(Cl)c(Cl)c1 [Compound L, 2-(3,4-dichlorophenyl)-1-ethyl-4-oxo-6-[[3-(trifluoromethyl)pyrazol-1-yl]methyl]pyridine-3-carboxylic acid]
- inhibition at 0.01 µM [1]: 10%
- inhibition at 0.075 µM [1]: 0%
- inhibition at 0.5 µM [1]: 16%
- inhibition at 0.01 µM [2]: 36%
- inhibition at 0.075 µM [2]: 52%
- inhibition at 0.5 µM [2]: 64%
- inhibition at 0.01 µM [3]: 83%
- inhibition at 0.075 µM [3]: 83%
- inhibition at 0.5 µM [3]: 85%
- inhibition at 0.01 µM [4]: 10%
- inhibition at 0.075 µM [4]: 18%
- inhibition at 0.5 µM [4]: 34%
- inhibition at 0.01 µM [5]: 0%
- inhibition at 0.075 µM [5]: 0%
- inhibition at 0.5 µM [5]: 32%
- inhibition at 0.01 µM [6]: 0%
- inhibition at 0.075 µM [6]: 2%
- inhibition at 0.5 µM [6]: 22%
- inhibition at 0.01 µM [7]: 5%
- inhibition at 0.075 µM [7]: 46%
- inhibition at 0.5 µM [7]: 86%
- inhibition at 0.01 µM [8]: 15%
- inhibition at 0.075 µM [8]: 16%
- inhibition at 0.5 µM [8]: 21%
- inhibition at 0.01 µM [9]: 9%
- inhibition at 0.075 µM [9]: 11%
- inhibition at 0.5 µM [9]: 85%

Compound: CCn1c(C)c(-c2ccc(F)cc2F)c(=O)c(C(=O)O)c1-c1ccc(Cl)c(Cl)c1 [Compound C, 2-(3,4-dichlorophenyl)-5-(2,4-difluorophenyl)-1-ethyl-6-methyl-4-oxo-pyridine-3-carboxylic acid]
- inhibition at 0.2 µM [1]: 5%
- inhibition at 1 µM [1]: 5%
- inhibition at 5 µM [1]: 20%
- inhibition at 0.2 µM [2]: 65%
- inhibition at 1 µM [2]: 80%
- inhibition at 5 µM [2]: 87%
- inhibition at 0.2 µM [3]: 45%
- inhibition at 1 µM [3]: 36%
- inhibition at 5 µM [3]: 53%
- inhibition at 0.2 µM [4]: 20%
- inhibition at 1 µM [4]: 17%
- inhibition at 5 µM [4]: 69%
- inhibition at 0.2 µM [5]: 19%
- inhibition at 1 µM [5]: 57%
- inhibition at 5 µM [5]: 86%
- inhibition at 0.2 µM [6]: 0%
- inhibition at 1 µM [6]: 11%
- inhibition at 5 µM [6]: 15%
- inhibition at 0.2 µM [7]: 52%
- inhibition at 1 µM [7]: 95%
- inhibition at 5 µM [7]: 99%
- inhibition at 0.2 µM [8]: 16%
- inhibition at 1 µM [8]: 16%
- inhibition at 5 µM [8]: 35%
- inhibition at 0.2 µM [9]: 11%
- inhibition at 1 µM [9]: 35%
- inhibition at 5 µM [9]: 80%
- inhibition at 0.2 µM [10]: 51%
- inhibition at 1 µM [10]: 81%
- inhibition at 5 µM [10]: 96%
- inhibition at 0.2 µM [11]: 27%
- inhibition at 1 µM [11]: 74%
- inhibition at 5 µM [11]: 96%
- inhibition at 0.2 µM [12]: 76%
- inhibition at 1 µM [12]: 99%
- inhibition at 5 µM [12]: 100%

Compound: CCn1c(-c2ccc(Cl)c(Cl)c2)c(C(=O)O)c(=O)c2cc(F)ccc21 [Compound M, 2-(3,4-dichlorophenyl)-1-ethyl-6-fluoro-4-oxo-quinoline-3-carboxylic acid]
- inhibition at 0.2 µM [1]: 19%
- inhibition at 1 µM [1]: 26%
- inhibition at 5 µM [1]: 66%
- inhibition at 0.2 µM [2]: 0%
- inhibition at 1 µM [2]: 78%
- inhibition at 5 µM [2]: 92%
- inhibition at 0.2 µM [3]: 44%
- inhibition at 1 µM [3]: 49%
- inhibition at 5 µM [3]: 62%
- inhibition at 0.2 µM [4]: 16%
- inhibition at 1 µM [4]: 24%
- inhibition at 5 µM [4]: 41%
- inhibition at 0.2 µM [5]: 27%
- inhibition at 1 µM [5]: 25%
- inhibition at 5 µM [5]: 66%
- inhibition at 0.2 µM [6]: 0%
- inhibition at 1 µM [6]: 1%
- inhibition at 5 µM [6]: 24%
- inhibition at 0.2 µM [7]: 52%
- inhibition at 1 µM [7]: 83%
- inhibition at 5 µM [7]: 97%
- inhibition at 0.2 µM [8]: 15%
- inhibition at 1 µM [8]: 11%
- inhibition at 5 µM [8]: 17%
- inhibition at 0.2 µM [9]: 19%
- inhibition at 1 µM [9]: 39%
- inhibition at 5 µM [9]: 75%
- inhibition at 0.2 µM [10]: 57%
- inhibition at 1 µM [10]: 77%
- inhibition at 5 µM [10]: 94%
- inhibition at 0.2 µM [11]: 29%
- inhibition at 1 µM [11]: 74%
- inhibition at 5 µM [11]: 95%
- inhibition at 0.2 µM [12]: 41%
- inhibition at 1 µM [12]: 83%
- inhibition at 5 µM [12]: 97%

Compound: CCOC(=O)c1nn(-c2ccc3c(c2)OC(F)(F)C(F)(F)O3)c2cccc(C(C)=O)c2c1=O [Compound A, ethyl 5-acetyl-4-oxo-1-(2,2,3,3-tetrafluoro-1,4-benzodioxin-6-yl)cinnoline-3-carboxylate]
- inhibition at 1 µM [1]: 6%
- inhibition at 1 µM [2]: 18%
- inhibition at 1 µM [3]: 78%
- inhibition at 1 µM [4]: 31%
- inhibition at 1 µM [5]: 0%
- inhibition at 1 µM [6]: 11%
- inhibition at 1 µM [7]: 63%
- inhibition at 1 µM [8]: 0%
- inhibition at 1 µM [9]: 30%
- inhibition at 1 µM [10]: 58%
- inhibition at 1 µM [11]: 0%
- inhibition at 1 µM [12]: 59%
